The record followed here is patent US20060069123A1, “Substituted dipiperidine CCR2 antagonists” (priority 2004, published 2006).

Read-outs that look alike come from different tables or passages of the source.

Test [1] relates to THP-1 cells. The experiment in a line: MCP-1 Induced Chemotaxis in THP-1 Cells. Conditions: Homo sapiens, THP-1 cells, MCP-1 0.01 μg/mL, 3 hours, read-out: Inhibition of MCP-1 Induced Chemotaxis IC50. It is filed as cell-based.
The test system of test [2] is THP-1 cells. Conditions: Homo sapiens.
The target of a further test is T1, CCR2 (Homo sapiens, UniProt P41597).
T1 sequence (P41597 1-360 isoform P41597-2): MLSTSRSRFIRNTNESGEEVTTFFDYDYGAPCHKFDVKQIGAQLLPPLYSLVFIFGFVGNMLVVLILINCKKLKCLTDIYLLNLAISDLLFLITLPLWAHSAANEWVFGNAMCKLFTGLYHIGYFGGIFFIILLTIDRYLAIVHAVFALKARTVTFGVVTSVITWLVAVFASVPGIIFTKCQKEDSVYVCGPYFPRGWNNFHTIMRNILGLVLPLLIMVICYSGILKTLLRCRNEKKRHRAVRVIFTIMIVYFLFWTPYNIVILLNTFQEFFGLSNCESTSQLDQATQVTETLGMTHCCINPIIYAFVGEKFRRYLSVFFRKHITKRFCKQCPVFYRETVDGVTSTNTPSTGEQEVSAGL

Setting [3] is: THP-1, read-out: Inhibition of MCP-1 Induced Calcium Ion Influx IC50.
Setting [4] is: THP-1, read-out: Inhibition of MCP-1 Induced Calcium Ion Influx IC50, THP-1 cells, 0.2 μM MCP-1, FLIPR.

Regarding `CC(=O)NCC(C1CCN(C(=O)/C=C/c2cccc(C)c2)CC1)N1CCC(c2c[nH]c3ccccc23)CC1` (stereo not drawn) [Cpd 216], the concentration for half-maximal inhibition (IC50) in the test on THP-1 cells [1] is 700 nM; in the test with THP-1 cells [2] (setting [3]) it was 1800 nM; on CCR2, 250 nM.
`Nc1cc2c(C3CCN(C(C(=O)O)C4CCN(C(=O)/C=C/c5cc(F)c(F)c(F)c5)CC4)CC3)c[nH]c2cn1` (stereo not drawn) [Cpd 179, [4-(5-amino-1H-pyrrolo[2,3-c]pyridin-3-yl)-piperidin-1-yl]-{1-[(2E)-3-(3,4,5-trifluoro-phenyl)-acryloyl]-piperidin-4-yl}-acetic acid]: the IC50 was 140 nM in the test with THP-1 cells [1], 2060 nM in the test with THP-1 cells [2] (setting [3]) and 230 nM against CCR2.
Consider `O=C(c1cc2ccccc2o1)N1CCC(C(CO)N2CCC(c3c[nH]c4ccccc34)CC2)CC1` (stereo not drawn) [Cpd 154, benzofuran-2-yl-(4-{2-hydroxy-1-[4-(1H-indol-3-yl)-piperidin-1-yl]-ethyl}-piperidin-1-yl)-methanone], for which the IC50 came to 160 nM with THP-1 cells [1], 4800 nM in the test on THP-1 cells [2] (setting [3]) and 270 nM against CCR2.
The matching figures for `O=C(/C=C/c1cc(F)cc(F)c1)N1CCC(C(CO)N2CCC(c3ccncc3)CC2)CC1` (stereo not drawn) [Cpd 182, (2E)-3-(3,5-difluoro-phenyl)-1-{4-[2-hydroxy-1-(3,4,5,6-tetrahydro-2H-[4,4′]bipyridinyl-1-yl)-ethyl]-piperidin-1-yl}-propenone]: 350 nM, 7870 nM and 330 nM.
As to `O=C(O)C(C1CCN(C(=O)Nc2ccc(SC(F)(F)F)cc2)CC1)N1CCC(c2c[nH]c3ccccc23)CC1` (stereo not drawn) [Cpd 142, [4-(1H-indol-3-yl)-piperidin-1-yl]-[1-(4-trifluoromethylsulfanyl-phenylcarbamoyl)-piperidin-4-yl]-acetic acid], the IC50 with THP-1 cells [1] is 60 nM; with THP-1 cells [2] (setting [3]), 30 nM; on CCR2 it was 5 nM.
On to `CS(=O)(=O)Nc1ccc2[nH]cc(C3CCN(C(COC(=O)/C=C/c4cc(F)cc(F)c4)C4CCN(C(=O)/C=C/c5cc(F)cc(F)c5)CC4)CC3)c2c1` (stereo not drawn) [Cpd 199, (2E)-3-(3,5-difluoro-phenyl)-acrylic acid 2-{1-[(2E)-3-(3,5-difluoro-phenyl)-acryloyl]-piperidin-4-yl}-2-[4-(5-methanesulfonylamino-1H-indol-3-yl)-piperidin-1-yl]-ethyl ester], for which the IC50 in the test on THP-1 cells [1] is 30 nM; with THP-1 cells [2] (setting [3]) it was 4 nM; against CCR2, 20 nM.
Take `COc1ccc(C2CCN(C(CO)C3CCN(C(=O)/C=C/c4ccc(F)c(Br)c4)CC3)CC2)cc1` (stereo not drawn) [Cpd 161, (2E)-3-(3-bromo-4-fluoro-phenyl)-1-(4-{2-hydroxy-1-[4-(4-methoxy-phenyl)-piperidin-1-yl]-ethyl}-piperidin-1-yl)-propenone]: the IC50 with THP-1 cells [1] is 90 nM; in the test on THP-1 cells [2] (setting [3]), 180 nM; at CCR2, 50 nM.
Turning to `O=C(/C=C/c1cc(F)cc(F)c1)N1CCC(C(CO)N2CCC(c3c[nH]c4c3ccc[n+]4[O-])CC2)CC1` (stereo not drawn) [Cpd 205, (2E)-3-(3,5-difluoro-phenyl)-1-(4-{2-hydroxy-1-[4-(7-oxy-1H-pyrrolo[2,3-b]pyridin-3-yl)-piperidin-1-yl]-ethyl}-piperidin-1-yl)-propenone], the figures for the IC50 in the test with THP-1 cells [1], in the test with THP-1 cells [2] (setting [3]) and against CCR2 were 40 nM, 20 nM and 40 nM, respectively.
For `O=C(/C=C/c1cc(F)c(F)c(F)c1)N1CCC(C(CO)N2CCC(c3c[nH]c4ccc(F)cc34)CC2)CC1` (stereo not drawn) [Cpd 170, (2E)-1-(4-{1-[4-(5-fluoro-1H-indol-3-yl)-piperidin-1-yl]-2-hydroxy-ethyl}-piperidin-1-yl)-3-(3,4,5-trifluoro-phenyl)-propenone], the IC50 turned out to be 9 nM in the test on THP-1 cells [1] (THP-1, 3 h); 10 nM in the test on THP-1 cells [2] (setting [4]); 40 nM at CCR2 (Inhibition of MCP-1 Binding IC50, 125I labeled MCP-1 binding to CCR2, THP-1 cells).
`O=C(/C=C/c1cc(F)cc(F)c1)N1CCC(C(CO)N2CCC(c3ccc4c(c3)OCO4)CC2)CC1` (stereo not drawn) [Cpd 190]: the IC50 turned out to be 200 nM with THP-1 cells [1], 250 nM in the test with THP-1 cells [2] (setting [3]) and 210 nM on CCR2.
As for `O=C(O)C(C1CCN(C(=O)COc2ccc(Cl)c(Cl)c2)CC1)N1CCC(c2c[nH]c3ccccc23)CC1` (stereo not drawn) [Cpd 114, {1-[2-(3,4-dichloro-phenoxy)-acetyl]-piperidin-4-yl}-[4-(1H-indol-3-yl)-piperidin-1-yl]-acetic acid], the half-maximal inhibitory concentration (IC50) in the test on THP-1 cells [1] (THP-1, 3 h) came out at 290 nM; in the test with THP-1 cells [2] (setting [4]) it was 210 nM; against CCR2, 350 nM.
`Nc1ccc2[nH]cc(C3CCN(C(C(=O)O)C4CCN(C(=O)/C=C/c5cc(F)c(F)c(F)c5)CC4)CC3)c2n1` (stereo not drawn) [Cpd 178, [4-(5-amino-1H-pyrrolo[3,2-b]pyridin-3-yl)-piperidin-1-yl]-{1-[(2E)-3-(3,4,5-trifluoro-phenyl)-acryloyl]-piperidin-4-yl}-acetic acid]: the figures for the IC50 in the test with THP-1 cells [1], in the test with THP-1 cells [2] (setting [3]) and on CCR2 were 180 nM, 2350 nM and 90 nM, respectively.
Take `O=C(/C=C/c1cc(F)c(F)c(F)c1)N1CCC(C(CO)N2CCC(c3c[nH]c4ccccc34)CC2)CC1` (stereo not drawn) [Cpd 112, (2E)-1-(4-{2-hydroxy-1-[4-(1H-indol-3-yl)-piperidin-1-yl]-ethyl}-piperidin-1-yl)-3-(3,4,5-trifluoro-phenyl)-propenone]: the IC50 with THP-1 cells [1] is 4 nM; in the test with THP-1 cells [2] (setting [3]) it was 0.6 nM; against CCR2, 4 nM.
In the case of `O=C(/C=C/c1ccc(Cl)c(Cl)c1)N1CCC(C(CO)N2CCC(c3c[nH]c4ccc(F)cc34)CC2)CC1` (stereo not drawn) [Cpd 168, (2E)-3-(3,4-dichloro-phenyl)-1-(4-{1-[4-(5-fluoro-1H-indol-3-yl)-piperidin-1-yl]-2-hydroxy-ethyl}-piperidin-1-yl)-propenone], the IC50 in the test with THP-1 cells [1] came out at 40 nM; in the test with THP-1 cells [2] (setting [3]), 10 nM; on CCR2 it was 20 nM.
For `CS(=O)(=O)Nc1ccc2[nH]cc(C3CCN(C(CO)C4CCN(C(=O)/C=C/c5ccc(Cl)c(Cl)c5)CC4)CC3)c2c1` (stereo not drawn) [Cpd 198, N-{3-[1-(1-{1-[(2E)-3-(3,4-dichloro-phenyl)-acryloyl]-piperidin-4-yl}-2-hydroxy-ethyl)-piperidin-4-yl]-1H-indol-5-yl}-methanesulfonamide], the IC50 with THP-1 cells [1] was determined as 0.2 nM; in the test on THP-1 cells [2] (setting [3]), 0.02 nM; on CCR2 it was 0.6 nM.
For `Cc1ccc(NC(=O)N2CCC(C(C(=O)O)N3CCC(c4c[nH]c5ccccc45)CC3)CC2)cc1` (stereo not drawn) [Cpd 99, [4-(1H-indol-3-yl)-piperidin-1-yl]-(1-p-tolylcarbamoyl-piperidin-4-yl)-acetic acid], the IC50 with THP-1 cells [1] worked out at 2500 nM; in the test with THP-1 cells [2] (setting [3]), 1600 nM; against CCR2, 810 nM.
In the case of `CS(=O)(=O)Nc1ccc2[nH]cc(C3CCN(C(CO)C4CCN(C(=O)/C=C/c5cc(F)c(F)c(F)c5)CC4)CC3)c2c1` (stereo not drawn) [Cpd 201, N-{3-[1-(2-hydroxy-1-{1-[(2E)-3-(3,4,5-trifluoro-phenyl)-acryloyl]-piperidin-4-yl}-ethyl)-piperidin-4-yl]-1H-indol-5-yl}-methanesulfonamide], the results for the IC50 with THP-1 cells [1], in the test on THP-1 cells [2] (setting [3]) and at CCR2 were 3 nM, 0.6 nM and 1 nM, respectively.
Consider `O=C(/C=C/c1cc(F)c(F)c(F)c1)N1CCC([C@@H](CO)N2CCC(c3c[nH]c4ccccc34)CC2)CC1` [Cpd 187, (2E)-1-(4-{(1S)-2-hydroxy-1-[4-(1H-indol-3-yl)-piperidin-1-yl]-ethyl}-piperidin-1-yl)-3-(3,4,5-trifluoro-phenyl)-propenone], for which the results for the 50% inhibitory concentration (IC50) in the test on THP-1 cells [1], with THP-1 cells [2] (setting [3]) and on CCR2 were 2 nM, 0.05 nM and 0.6 nM, respectively.
Taken in the same sequence, the figures for `COc1ccc2[nH]cc(C3CCN(C(CO)C4CCN(C(=O)/C=C/c5ccc(Cl)c(Cl)c5)CC4)CC3)c2c1` (stereo not drawn) [Cpd 162, (2E)-3-(3,4-dichloro-phenyl)-1-(4-{2-hydroxy-1-[4-(5-methoxy-1H-indol-3-yl)-piperidin-1-yl]-ethyl}-piperidin-1-yl)-propenone] were 20 nM, 2 nM and 7 nM.
Consider `CC(=O)OCC(C1CCN(C(=O)Nc2ccc(Cl)c(Cl)c2)CC1)N1CCC(c2c[nH]c3ccccc23)CC1` (stereo not drawn) [Cpd 242, acetic acid 2-[1-(3,4-dichloro-phenylcarbamoyl)-piperidin-4-yl]-2-[4-(1H-indol-3-yl)-piperidin-1-yl]-ethyl ester], for which the IC50 came out at 270 nM in the test with THP-1 cells [1], 40 nM in the test with THP-1 cells [2] (setting [3]) and 230 nM against CCR2.
As for `O=C(/C=C/c1ccc(Cl)c(Cl)c1)N1CCC(C(CO)N2CCC(c3cc[nH]n3)CC2)CC1` (stereo not drawn) [Cpd 155, (2E)-3-(3,4-dichloro-phenyl)-1-(4-{2-hydroxy-1-[4-(1H-pyrazol-3-yl)-piperidin-1-yl]-ethyl}-piperidin-1-yl)-propenone], the IC50 with THP-1 cells [1] is 130 nM; with THP-1 cells [2] (setting [3]), 940 nM; against CCR2, 207 nM.
The matching figures for `COc1ccc(C2CCN([C@@H](CO)C3CCN(C(=O)/C=C/c4cc(F)cc(F)c4)CC3)CC2)cc1` [Cpd 181, (2E)-3-(3,5-difluoro-phenyl)-1-(4-{(1R)-2-hydroxy-1-[4-(4-methoxy-phenyl)-piperidin-1-yl]-ethyl}-1-piperidin-1-yl)-propenone]: 70 nM, 160 nM and 40 nM.

As a reminder, the IC50 is the concentration needed to halve the response being measured.
